Measured values: doi:10.1101/2024.08.25.609621 (bioRxiv, 2024)
Where “and” joins values, the source holds several entries; their conditions need not be identical. Equal values may be shown once. Read-outs that look alike come from different tables or passages of the source.

Experiments:
[1] = target: SARS-CoV-2 NSP3 macrodomain (Mac1), P43 crystal form (Severe acute respiratory syndrome coronavirus 2, UniProt P0DTD1); assay type: binding; conditions: for 1-BDC: PanDDA background density correction; for Total number of conformations: ligand conformations modeled in Mac1 crystal structure; for X-ray crystallography: Binding site: site where the ligand is bound in the X-ray crystal structure
[2] = target: SARS-CoV-2 NSP3 macrodomain (Mac1) (Severe acute respiratory syndrome coronavirus 2, UniProt P0DTD1); test: biochemical; assay type: binding; conditions: for SARS CoV-2 macrodomain HTRF assay: Hillslope: dose-response fit
[3] = TRUE = crystal structure with ligand determined
[4] = crystal soak concentration 20 mM
[5] = crystal soak concentration 20 mM, P43 crystals
[6] = occupancy estimate from PanDDA BDC
[7] = site of Mac1 where ligand bound in crystal structure
[8] = Single dose, 200 μM, mean of three technical replicates, read-out: Average % competition
[9] = preliminary screen, compound at 200 μM, mean of 3-4 technical replicates, read-out: % competition in HTRF assay
[10] = crystal soak concentration 10 mM, event 1
[11] = crystal soak concentration 10 mM, P43 crystals
[12] = crystal soak concentration 10 mM
[13] = crystal soak 10 mM, P43 crystals
[14] = crystal soak, soak concentration 10 mM
[15] = crystal soak, soak concentration 10 mM, TRUE = ligand hit
[16] = occupancy estimate from PanDDA 1-BDC

Compound | Occupancy difference (refined_occupancy - 2*(1-BDC)) [1] | Refined ligand occupancy (%) [1] [%] | 1-BDC [1] | Total number of conformations [1] | 2*(1-BDC) (%) [1, 6] [%] | Hill slope ([2]; HTRF dose-response fit, Mac1) | X-ray crystallography: Binding site [1] | SARS CoV-2 macrodomain HTRF assay: Hillslope [2] | PanDDA run, DMSO background map: 1-BDC ([1]; event 1) | other results
O=C1CCc2cc(C(=O)N3CC(C(=O)O)CCC34CCCC4)c(F)cc2N1 (stereo not shown) [AVI-338] | 0 | 14 | 0.07 | 1 | 14 | 1.5 | – | – | – | X-ray crystal structure [1, 3]: TRUE; PanDDA run, DMSO background map: Hit [1, 4]: TRUE; PanDDA run, DMSO background map: Modeled [1, 4]: TRUE; PanDDA run, DMSO background map: 1-BDC ([1]; crystal soak concentration 20 mM, event 1): 0.07; Pandda run, overall: Hit [1, 5]: TRUE; Pandda run, overall: Modeled [1, 5]: TRUE; Binding site [1, 7]: Adenosine; Hill slope ([2]; Dose-response, SARS CoV-2 macrodomain HTRF assay): 1.5; inhibition at 200 µM [2, 8]: 23%; inhibition at 200 µM [2, 9]: 23%
CC(C)(O)C1C2CCCCC2CN1c1ncnc2[nH]ccc12 (stereo not shown) [AVI-4127] | 10 | 60 | 0.25 | 2 | 50 | 1.3 | Adenosine | 1.3 | – | Phe132 loop open state [1]: TRUE; PanDDA run, DMSO background map: 1-BDC [1, 10]: 0.23 and 0.25; Pandda run, overall: Hit [1, 11]: TRUE; Pandda run, overall: Modeled [1, 11]: TRUE; Pandda run, overall: Modeling comment [1, 11]: Duplicate, not modeled; PanDDA run, DMSO background map: Hit [1, 12]: TRUE; PanDDA run, DMSO background map: Modeled [1, 12]: TRUE
OC1(CNc2ncnc3[nH]ccc23)CCCOC1 (stereo not shown) [AVI-4311] | 0 | 50 | 0.25 | 1 | 50 | 1.4 | Adenosine | 1.4 | 0.3 | Hit (PanDDA run, overall) [1, 13]: TRUE; Hit (PanDDA run, DMSO background map) ([1]; crystal soak 10 mM): TRUE; 1-BDC (PanDDA run, DMSO background map) ([1]; crystal soak 10 mM, event 1): 0.25
OCC1C2CCC(C2)N1c1ncnc2[nH]ccc12 (stereo not shown) [AVI-3713] | – | – | 0.29 | 1 | – | 1.1 | Adenosine | 1.1 | – | Pandda run, overall: Modeled [1, 14]: TRUE; Pandda run, overall: Hit [1, 15]: TRUE; 2*(1-BDC) (%) [1, 16]: 58%; PanDDA run, DMSO background map: 1-BDC ([1]; soak concentration 10 mM): 0.29; PanDDA run, DMSO background map: Hit ([1]; soak concentration 10 mM): TRUE; inhibition at 200 µM ([2]; Single dose, concentration 200 μM, read-out: SARS CoV-2 macrodomain HTRF assay: Average % competition): 92%; inhibition at 200 µM [2, 9]: 92%
Cc1sc2ncnc(Sc3ccccc3C(=O)O)c2c1C [AVI-317] | – | – | 0.15 | 2 | – | – | – | – | 0.18 | X-ray crystal structure [1, 3]: TRUE; PanDDA run, DMSO background map: 1-BDC [1, 10]: 0.17 and 0.15; Pandda run, overall: Hit [1, 11]: TRUE; Pandda run, overall: Modeled [1, 11]: TRUE; Pandda run, overall: Modeling comment [1, 11]: Duplicate, not modeled; PanDDA run, DMSO background map: Hit [1, 12]: TRUE; PanDDA run, DMSO background map: Modeled [1, 12]: TRUE; 2*(1-BDC) (%) [1, 16]: 30%; Binding site [1, 7]: Adenosine; inhibition at 200 µM [2, 8]: 24%; inhibition at 200 µM [2, 9]: 24%
O[C@H]1CC[C@H]2CCN(c3ncnc4[nH]ccc34)[C@H]21 [AVI-5997] | 12 | 70 | 0.29 | 1 | 58 | 1.2 | Adenosine | 1.2 | 0.28 and 0.29 | –
C[C@@H]1CCN(c2ncnc3[nH]ccc23)[C@H](CO)C1 (racemic) [AVI-4064] | 0 | 38 | 0.19 | 2 | 38 | 1.2 | Adenosine | 1.2 | – | Hit (PanDDA run, overall) [1, 13]: TRUE; Hit (PanDDA run, DMSO background map) ([1]; crystal soak 10 mM): TRUE; 1-BDC (PanDDA run, DMSO background map) ([1]; crystal soak 10 mM, event 1): 0.19
OC1(CNc2ncnc3[nH]ccc23)CCSCC1 [AVI-4319] | 0 | 32 | 0.16 | 1 | 32 | 1.2 | Adenosine | 1.2 | 0.16 and 0.17 | –
CC1(C)CCC(O)(CNc2ncnc3[nH]ccc23)CC1 [AVI-4310] | – | – | – | – | – | 1.3 | – | 1.3 | 0.17 | Modeling comment (PanDDA run, overall) ([1]; crystal soak 10 mM): Weak density, not modeled; Hit (PanDDA run, overall) [1, 13]: TRUE; Hit (PanDDA run, DMSO background map) ([1]; crystal soak 10 mM): TRUE; 1-BDC (PanDDA run, DMSO background map) ([1]; crystal soak 10 mM, event 1): 0.14
CC1CCCC(O)(CNc2ncnc3[nH]ccc23)C1 (stereo not shown) [AVI-4307] | 0 | 34 | 0.17 | 1 | 34 | 1.0 | Adenosine | 1.0 | 0.26 | Hit (PanDDA run, overall) [1, 13]: TRUE; Hit (PanDDA run, DMSO background map) ([1]; crystal soak 10 mM): TRUE; 1-BDC (PanDDA run, DMSO background map) ([1]; crystal soak 10 mM, event 1): 0.17
CC1CC(C(=O)O)CN(C(=O)CSc2ccc(O)cc2)C1 (stereo not shown) [AVI-334] | – | – | – | – | – | – | – | – | 0.12 | PanDDA run, DMSO background map: 1-BDC [1, 10]: 0.07; Pandda run, overall: Hit [1, 11]: TRUE; Pandda run, overall: Modeling comment [1, 11]: Weak density, not modeled; PanDDA run, DMSO background map: Hit [1, 12]: TRUE; Average % competition ([2]; Single dose, 200 μM, mean of three technical replicates): 25%
OC1(CNc2ncnc3[nH]ccc23)CCCCC1 [AVI-6217] | 16 | 60 | 0.22 | 1 | 44 | 1.1 | Adenosine | 1.1 | 0.22 | –
O[C@H]1COC[C@@H]1Nc1ncnc2[nH]ccc12 [AVI-1444, (3R,4S)-4-((7H-pyrrolo[2,3-d]pyrimidin-4-yl)amino)tetrahydrofuran-3-ol] | – | – | 0.08 | 1 | – | – | – | – | – | X-ray crystal structure ([1]; X-ray crystal structure determined (TRUE)): TRUE; Pandda run, overall: Modeled [1, 14]: TRUE; Pandda run, overall: Hit [1, 15]: TRUE; 2*(1-BDC) (%) [1, 16]: 16%; Binding site ([1]; site of ligand in X-ray crystal structure): Adenosine; PanDDA run, DMSO background map: 1-BDC ([1]; soak concentration 10 mM): 0.08 and 0.11; PanDDA run, DMSO background map: Hit ([1]; soak concentration 10 mM): TRUE; IC50 ([2]; SARS CoV-2 macrodomain HTRF assay, dose-response, read-out: IC50): > 1000 µM
CC1CCC(O)(CNc2ncnc3[nH]ccc23)CC1 (stereo not shown) [AVI-4312] | 0 | 44 | 0.22 | 1 | 44 | 1.2 | Adenosine | 1.2 | 0.22 and 0.3 | –
